Measurements from patent US10758552B2, “Pharmaceutical composition containing combinations of nicotinamide and 5-aminosalicylic acid for beneficially influencing the intestinal microbiota and/or treating gastrointestinal inflammation” (CONARIS RESEARCH INSTITUTE AG, priority 2013, dated 2020).

Assays:
[1] = system: dextrane sodium sulfate (DSS) colitis model in mice; assay: DSS colitis model in mice on Trp/Nia/NAM-free diet, histological scoring of the colon (Example 1); assay type: in vivo, C57BL/6J mice; conditions: 1.5% DSS
Procedure: In order to characterise the combined effect of 5-ASA and nicotinamide (NAM) in controlled release formulations for targeted delivery of both substances to the intestinal epithelium, a study was conducted in a dextrane sodium sulfate (DSS) colitis model in mice. In this study, a controlled release granule formulation for was tested in two different doses (30 mg/kg and 60 mg/kg). As a representative controlled release formulation for 5-ASA, 5-ASA granules ([…]®; Ferring Pharmaceuticals, Saint-Prex, Switzerland) were used both alone and in combination with the NAM granules. The controlled release formulation for NAM is a granulate of 25% nicotinamide, 70% dibasic calcium phosphate and 5% Povidone K30. The mean particle size was 234 μm. […] Filtering removed particles with a size of less than 355 μm. Control granules replaced NAM with an equivalent amount of dibasic calcium phosphate. Male C57BL/6J mice (specific pathogen free; Charles River Laboratories, Saint-Germain-sur-l'Arbresle, France) were taken into the test facility at >12 weeks of age and acclimatised for 1 week. The diet during the acclimatisation phase was diet A4, produced by SAFE (Scientific Animal Food and Engineering, Augy, France). […] The fixed doses for the other granules were calculated in an analogous fashion. […]

murine DSS colitis model = assay: DSS colitis model in mice on normal diet, disease activity index (DAI) scoring (Example 2); assay type: in vivo, C57BL/6J mice; conditions: for % improvement of DAI vs DSS: granules in food, 2.5% DSS
Procedure: In a second and much larger study, NAM and 5-ASA controlled release granules were used again in the murine DSS colitis model (see Example 1) to confirm the anti-inflammatory properties of NAM in one low dose (30 mg/kg) and to investigate two higher dosages (120 or 240 mg/kg) not administered in the first study. […] One very important difference to the first study described in Example 1 was the fact that the mice received normal food with normal levels of tryptophan, nicotinic acid and nicotinamide (SAFE diet A4; Scientific Animal Food and Engineering, Augy, France; see Example 1). Therefore, any effects observed in this second study cannot be due to supplementation of NAM to NA/NAM/Trp-starved mice. In the present study, the same DSS colitis model in C57BL/6J mice as in Example 1 was used, albeit with some minor modifications: 2.5% DSS were used to provide a stronger DSS challenge. The animals were acclimatised for one week to stabilise their microbiota, randomised into 9 different groups as illustrated in the following Table 1 and then kept for 10 days on the different diets (days -10 to -1) before inducing colitis by DSS in the drinking water (day 0-day 6) followed by a washout period with normal drinking water (day 6-day 9). All groups received 2.5% DSS. [table] [table] The 5-ASA granules were the same as in Example 1. Their 5-ASA content was 52% (one granule weighed 0.5 mg and contained 0.26 mg of 5-ASA). The 5-ASA granules were mixed with regular food for preparation of single-use food aliquots, which were stored frozen at -20° C. and thawed daily prior to feeding the mice. […] Therefore, the food was prepared with 2.88 g of granules per kg of food (for the 150 mg/kg dose) or 1.44 g/kg (for the 75 mg/kg dose). The NAM granules of the present example were produced by the same manufacturer and in a similar formulation (diameter: 0.355-0.500 mm; NAM content: 19.1%) as in Example 1. Three kinds of food were prepared in an analogous fashion to the food with 5-ASA granules as described above. […] Therefore, the food preparation for the three dose groups was performed as follows: 1.57 g of granules per kg of food for the 30 mg/kg dose group, 6.28 g of granules per kg of food for the 120 mg/kg dose group and 12.56 g of granules per kg of food for the 240 mg/kg dose group. For the control group, food without granules was processed in the same fashion as the granule-containing food preparations described above in order to exclude preparation artefacts. After euthanasia, the colon was analysed and the disease activity index (DAI; score 0-9) was scored using an adapted DAI system based on […] et al. 2005 (Am. J. Physiol. Gastrointest. Liver Physiol. 288:[…]). As no visible blood was observed, the blood scoring parameter according to […] et al. was changed to scoring the signal strength for occult blood in feces detected by the ColoScreen test (Helena Laboratories, Beaumont, Tex., USA). This signal strength scoring was performed independently by two investigators blinded to the identity of the samples. [table] All comparisons were analysed using the […] for two independent samples in the StatXact software (Cytel, Cambridge, Mass., USA).

SMILES	histological score of the colonic mucosa ([1]; 5-ASA granules alone in diet, 150 mg/kg)	stool consistency (diarrhea) (murine DSS colitis model; 75 mg/kg 5-ASA alone)	% improvement of DAI vs DSS (murine DSS colitis model; 75 mg/kg 5-ASA) [%]	stool consistency (diarrhea) (murine DSS colitis model; 150 mg/kg 5-ASA alone)	% improvement of DAI vs DSS (murine DSS colitis model; 150 mg/kg 5-ASA) [%]	mice having blood in the feces (occult blood) (murine DSS colitis model; 150 mg/kg 5-ASA, control mice 100%, day of necropsy) [%]	macroscopic inflammation score, dose effect (murine DSS colitis model; 5-ASA alone, 75 vs 150 mg/kg)	disease activity index (DAI), dose effect (murine DSS colitis model; doubling the dose of 5-ASA from 75 to 150 mg/kg)	histological score of the colonic mucosa ([1]; NAM granules alone in diet, 30 or 60 mg/kg)	% improvement of DAI vs DSS (murine DSS colitis model; 30 mg/kg NAM) [%]	% improvement of DAI vs DSS (murine DSS colitis model; 120 mg/kg NAM) [%]	% improvement of DAI vs DSS (murine DSS colitis model; 240 mg/kg NAM) [%]	disease activity index (DAI), dose effect (murine DSS colitis model; NAM alone from 30 to 240 mg/kg)	macroscopic inflammation score, dose effect (murine DSS colitis model; NAM alone, 30 to 240 mg/kg)	stool consistency (diarrhea) (murine DSS colitis model; different NAM doses alone)
Nc1ccc(O)c(C(=O)O)c1 [5-ASA, 5-aminosalicylic acid]	trend towards histological improvement	hardly improved	28	significant effect	43	53	no difference	stronger decrease of the DAI							
NC(=O)c1cccnc1 [NAM, nicotinamide]									trend towards histological improvement	39	40	40	no dose response	slight dose-dependent effect	hardly improved
